How the values were obtained:
Rhodotorula rubra = type: cell-based; settings: Rhodotorula rubra ISM 7198
Aspergillus niger = type: cell-based; settings: ATCC9642; Aspergillus niger ATCC 9642
Proteus vulgaris = type: cell-based; settings: ATCC6897; Proteus vulgaris ATCC 6897
Penicillium funicolosum = type: cell-based; settings: ATCC9644; Penicillium funicolosum ATCC 9644
Pseudomonas maltophilia = type: cell-based; settings: Stenotrophomonas maltophilia, ATCC13637; Pseudomonas maltophilia ATCC 13637
Cryptococcus neoformans = type: cell-based; settings: Cryptococcus neoformans ISM 7182
Bacillus subtilis = type: cell-based; settings: ATCC6633; Bacillus subtilis ATCC 6633
Sarcina lutea = type: cell-based; settings: Micrococcus luteus, ATCC9341; Sarcina lutea ATCC 9341
rat peritoneum = settings: in vivo, ip
Candida albicans = type: cell-based; settings: ATCC10231; Candida albicans ATCC 10231
Pseudomonas aeruginosa = type: cell-based; settings: ATCC14502; Pseudomonas aeruginosa ATCC 14502
[1] = system: Bordetella bronchiseptica; type: cell-based; settings: ATCC4617; Bordetella bronchiseptica ATCC 4617
Streptococcus pyogenes = type: cell-based; settings: ATCC12380; Streptococcus pyogenes ATCC 12380
[2] = system: Staphylococcus epidermidis; type: cell-based; settings: Staphylococcus epidermidis BB 0223
[3] = system: acetic acid-induced peritoneal exudation; assay: Antiexudative activity (acetic acid-induced peritoneal exudation); type: in vivo; settings: rat, 1 hour before i.p. 1% acetic acid
Experimental: The test was carried out in the rat. The products were orally administered 1 hour before the intraperitoneal injection of 0.5 ml of 1% acetic acid. Along with the irritant agent, 1 ml of 0,1% Blue Evans was injected i.v. to the rats. The same procedure as that described above was followed for collecting the peritoneal exudate and rating the irritation degree.

Bacillus antracis = type: cell-based
rat subcutaneous tissue = assay: Topical tolerability in rat subcutaneous tissue; type: in vivo; design: key: 0: no response; 1: moderate response; 2: sharp response; 3: marked response; 4: extreme response; settings: 1 ml of 1% suspension s.c., arbitrary scale 0-4; for Irritation degree 4h: 4 hours after administration; for Irritation degree 24h: 24 hours after administration
Experimental: The test was carried out on rats using two different test procedures. The products were tested at 1% concentration. According to the first procedure, 1 ml of the test suspensions were injected subcutaneously (s.c.) in the side of animals. 4 or 24 hours following administration, the animals were sacrificed, and the degree of subcutaneous irriration estimated.
The presence of erythema, oedema and necrosis was assessed based on the following arbitrary rating scale • - 0 : no response • - 1 : moderate response • - 2 : sharp response • - 3 : marked response • - 4 : extreme response

Staphylococcus aureus = type: cell-based; settings: ATCC6538P; Staphylococcus aureus ATCC 6538P
Saccharomyces cerevisiae = type: cell-based; settings: Saccharomyces cerevisiae BB 0193
Streptococcus faecalis = type: cell-based; settings: Enterococcus faecalis, ATCC8043; Streptococcus faecalis ATCC 8043
Escherichia coli = type: cell-based; settings: Escherichia coli K 12
in vivo = settings: mouse, ip
Experimental: (§1) The test was carried out in the mouse. The products were administered by intraperitoneal injection. The death rate was assessed daily over a period of 14 days following treatment.

mouse = assay: in vivo; settings: ip
Experimental: as §1

Candida utilis = type: cell-based; settings: Williopsis jadinii; Candida utilis BB 0173
Klebsiella pneumoniae = type: cell-based; settings: ATCC10031; Klebsiella pneumoniae ATCC 10031

Question: For CCCCCCCCCC[N+](C)(C)CCOC(=O)Cc1c(C)n(C(=O)c2ccc(Cl)cc2)c2ccc(OC)cc12 [RE 8, iodide of the ester of 2-N,N,N-dimethyl-decyl --amino-ethanol with 1-(p-chlorobenzoyl)-2-methyl-5-methoxy-3-indolyl-acetic acid], which MIC (Rhodotorula rubra) is on record?
Answer: ≤ 5 µg/mL

Question: What about the MIC (Aspergillus niger) of the same compound?
Answer: ≤ 5 µg/mL

Question: And the MIC (Proteus vulgaris)?
Answer: 80 µg/mL

Question: And the MIC (Penicillium funicolosum)?
Answer: ≤ 5 µg/mL

Question: What about the MIC (Pseudomonas maltophilia) of the same compound?
Answer: 80 µg/mL

Question: And the MIC (Cryptococcus neoformans)?
Answer: ≤ 5 µg/mL

Question: And the MIC (Bacillus subtilis)?
Answer: 10 µg/mL

Question: What about the MIC (Sarcina lutea) of the same compound?
Answer: 10 µg/mL

Question: What about the “Percent increase in response with respect to controls” value (rat peritoneum) of the same compound?
Answer: 97%

Question: And the MIC (Candida albicans)?
Answer: ≤ 5 µg/mL

Question: And the MIC (Pseudomonas aeruginosa)?
Answer: 80 µg/mL

Question: And the MIC [1]?
Answer: 80 µg/mL

Question: And the MIC (Streptococcus pyogenes)?
Answer: 10 µg/mL

Question: And the MIC [2]?
Answer: ≤ 5 µg/mL

Question: What about the “% Inhibition with respect to controls” value ([3]; 200 mg/kg orally) of the same compound?
Answer: 31%

Question: And the “% Inhibition with respect to controls” value ([3]; 400 mg/kg orally)?
Answer: 46%

Question: What about the MIC (Bacillus antracis) of the same compound?
Answer: 10 µg/mL

Question: What about the “Irritation degree 4h” value (rat subcutaneous tissue) of the same compound?
Answer: 2

Question: And the “Irritation degree 24h” value (rat subcutaneous tissue)?
Answer: 2

Question: And the MIC (Staphylococcus aureus)?
Answer: ≤ 5 µg/mL

Question: What about the MIC (Saccharomyces cerevisiae) of the same compound?
Answer: ≤ 5 µg/mL

Question: What about the MIC (Streptococcus faecalis) of the same compound?
Answer: 10 µg/mL

Question: What about the MIC (Escherichia coli) of the same compound?
Answer: > 80 µg/mL

Question: And the mortality at 336 h (in vivo; 7.8 mg/kg)?
Answer: 0%

Question: And the mortality at 336 h (in vivo; 15.6 mg/kg)?
Answer: 0%

Question: And the mortality at 336 h (in vivo; 31.2 mg/kg)?
Answer: 100%

Question: What about the mortality at 336 h (in vivo; 62.5 mg/kg) of the same compound?
Answer: 100%

Question: What about the mortality at 336 h (in vivo; 125 mg/kg) of the same compound?
Answer: 83.3%

Question: And the mortality at 336 h (in vivo; 250 mg/kg)?
Answer: 100%

Question: And the Mortality (mouse; 7.8 mg/kg)?
Answer: 0/6

Question: And the Mortality (mouse; 31.2 mg/kg)?
Answer: 6/6

Question: What about the Mortality (mouse; 62.5 mg/kg) of the same compound?
Answer: 6/6

Question: What about the Mortality (mouse; 125 mg/kg) of the same compound?
Answer: 5/6

Question: What about the Mortality (mouse; 250 mg/kg) of the same compound?
Answer: 6/6

Question: What about the MIC (Candida utilis) of the same compound?
Answer: ≤ 5 µg/mL

Question: What about the MIC (Klebsiella pneumoniae) of the same compound?
Answer: > 80 µg/mL

Question: Which “% Inhibition with respect to controls” value ([3]; 200 mg/kg orally) does the source give for CC(C)Cc1ccc(C(C)C(=O)O)cc1 (stereo not drawn) [ibuprofen, Ibuprofen, reference compound] here?
Answer: 60%

Question: And the “% Inhibition with respect to controls” value ([3]; 400 mg/kg orally)?
Answer: 58%

Question: Which results are given for CCCCCCCC[N+](C)(C)CCOC(=O)C(C)c1ccc(CC(C)C)cc1 (stereo not drawn) [AF 150, bromide of the ester of 2-N,N,N-dimethyl-octyl-amino-ethanol with p-isobutylphenyl-alpha-methylacetic acid]?
Answer: MIC (Rhodotorula rubra): ≤ 5 µg/mL; MIC (Aspergillus niger): 10 µg/mL; MIC (Proteus vulgaris): 10 µg/mL; MIC (Penicillium funicolosum): 10 µg/mL; MIC (Pseudomonas maltophilia): 40 µg/mL; MIC (Cryptococcus neoformans): ≤ 5 µg/mL; MIC (Bacillus subtilis): 10 µg/mL; MIC (Sarcina lutea): ≤ 5 µg/mL; Percent increase in response with respect to controls (rat peritoneum): 185%; MIC (Candida albicans): ≤ 5 µg/mL; MIC (Pseudomonas aeruginosa): 10 µg/mL; MIC [1]: 10 µg/mL; MIC (Streptococcus pyogenes): 20 µg/mL; MIC [2]: 10 µg/mL; % Inhibition with respect to controls ([3]; 200 mg/kg orally): 37%; % Inhibition with respect to controls ([3]; 400 mg/kg orally): 51%; MIC (Bacillus antracis): 10 µg/mL; Irritation degree 4h (rat subcutaneous tissue): 2; Irritation degree 24h (rat subcutaneous tissue): 1; MIC (Staphylococcus aureus): ≤ 5 µg/mL; MIC (Saccharomyces cerevisiae): ≤ 5 µg/mL; MIC (Streptococcus faecalis): 20 µg/mL; MIC (Escherichia coli): 80 µg/mL; mortality at 336 h (in vivo; 7.8 mg/kg): 0%; mortality at 336 h (in vivo; 15.6 mg/kg): 0%; mortality at 336 h (in vivo; 31.2 mg/kg): 100%; mortality at 336 h (in vivo; 62.5 mg/kg): 100%; mortality at 336 h (in vivo; 125 mg/kg): 83.3%; Mortality (mouse; 7.8 mg/kg): 0/6; Mortality (mouse; 31.2 mg/kg): 6/6; Mortality (mouse; 62.5 mg/kg): 6/6; Mortality (mouse; 125 mg/kg): 5/6; MIC (Candida utilis): ≤ 5 µg/mL; MIC (Klebsiella pneumoniae): 10 µg/mL

Question: With N=C(NCCCCCCNC(=N)NC(=N)Nc1ccc(Cl)cc1)NC(=N)Nc1ccc(Cl)cc1 [Chlorexidine, Chlorexidine gluconate, reference compound] as the compound, how does the MIC (Rhodotorula rubra) read?
Answer: 40 µg/mL

Question: What about the MIC (Aspergillus niger) of the same compound?
Answer: 80 µg/mL

Question: And the MIC (Proteus vulgaris)?
Answer: 40 µg/mL

Question: What about the MIC (Penicillium funicolosum) of the same compound?
Answer: > 80 µg/mL

Question: And the MIC (Pseudomonas maltophilia)?
Answer: 80 µg/mL

Question: What about the MIC (Cryptococcus neoformans) of the same compound?
Answer: 40 µg/mL

Question: What about the MIC (Bacillus subtilis) of the same compound?
Answer: ≤ 5 µg/mL

Question: What about the MIC (Sarcina lutea) of the same compound?
Answer: 20 µg/mL

Question: What about the MIC (Candida albicans) of the same compound?
Answer: 20 µg/mL

Question: What about the MIC (Pseudomonas aeruginosa) of the same compound?
Answer: 80 µg/mL

Question: And the MIC [1]?
Answer: 40 µg/mL

Question: What about the MIC (Streptococcus pyogenes) of the same compound?
Answer: 10 µg/mL

Question: What about the MIC [2] of the same compound?
Answer: 10 µg/mL

Question: What about the MIC (Bacillus antracis) of the same compound?
Answer: 20 µg/mL

Question: And the MIC (Staphylococcus aureus)?
Answer: ≤ 5 µg/mL

Question: What about the MIC (Saccharomyces cerevisiae) of the same compound?
Answer: 80 µg/mL

Question: What about the MIC (Streptococcus faecalis) of the same compound?
Answer: 20 µg/mL

Question: And the MIC (Escherichia coli)?
Answer: 10 µg/mL

Question: And the MIC (Candida utilis)?
Answer: 40 µg/mL

Question: And the MIC (Klebsiella pneumoniae)?
Answer: 40 µg/mL

Question: Which MIC (Rhodotorula rubra) does the source give for CCCCCCCCCCCC[N+](C)(C)CCOC(=O)Cc1c(C)n(C(=O)c2ccc(Cl)cc2)c2ccc(OC)cc12 [RE 9, iodide of the ester of 2-N,N,N-dimethyl-dodecyl, amino-ethanol with 1-(p-chlorobenzoyl)-2-methyl-5-methoxy-3-indolyl-acetic acid] here?
Answer: ≤ 5 µg/mL

Question: And the MIC (Aspergillus niger)?
Answer: ≤ 5 µg/mL

Question: What about the MIC (Proteus vulgaris) of the same compound?
Answer: 20 µg/mL

Question: What about the MIC (Penicillium funicolosum) of the same compound?
Answer: ≤ 5 µg/mL

Question: What about the MIC (Pseudomonas maltophilia) of the same compound?
Answer: 80 µg/mL

Question: And the MIC (Cryptococcus neoformans)?
Answer: ≤ 5 µg/mL

Question: What about the MIC (Bacillus subtilis) of the same compound?
Answer: ≤ 5 µg/mL

Question: And the MIC (Sarcina lutea)?
Answer: ≤ 5 µg/mL

Question: What about the “Percent increase in response with respect to controls” value (rat peritoneum) of the same compound?
Answer: 95%

Question: What about the MIC (Candida albicans) of the same compound?
Answer: ≤ 5 µg/mL

Question: And the MIC (Pseudomonas aeruginosa)?
Answer: 80 µg/mL

Question: And the MIC [1]?
Answer: 80 µg/mL

Question: And the MIC (Streptococcus pyogenes)?
Answer: ≤ 5 µg/mL

Question: And the MIC [2]?
Answer: ≤ 5 µg/mL

Question: And the “% Inhibition with respect to controls” value ([3]; 200 mg/kg orally)?
Answer: 35%

Question: What about the “% Inhibition with respect to controls” value ([3]; 400 mg/kg orally) of the same compound?
Answer: 40%

Question: What about the MIC (Bacillus antracis) of the same compound?
Answer: ≤ 5 µg/mL

Question: And the “Irritation degree 4h” value (rat subcutaneous tissue)?
Answer: 2

Question: What about the “Irritation degree 24h” value (rat subcutaneous tissue) of the same compound?
Answer: 2

Question: And the MIC (Staphylococcus aureus)?
Answer: ≤ 5 µg/mL

Question: And the MIC (Saccharomyces cerevisiae)?
Answer: ≤ 5 µg/mL

Question: And the MIC (Streptococcus faecalis)?
Answer: ≤ 5 µg/mL

Question: And the MIC (Escherichia coli)?
Answer: 80 µg/mL

Question: What about the mortality at 336 h (in vivo; 31.2 mg/kg) of the same compound?
Answer: 0%

Question: What about the mortality at 336 h (in vivo; 62.5 mg/kg) of the same compound?
Answer: 83.3%

Question: What about the mortality at 336 h (in vivo; 125 mg/kg) of the same compound?
Answer: 100%

Question: What about the mortality at 336 h (in vivo; 250 mg/kg) of the same compound?
Answer: 83.3%

Question: And the mortality at 336 h (in vivo; 500 mg/kg)?
Answer: 100%

Question: And the Mortality (mouse; 62.5 mg/kg)?
Answer: 5/6

Question: What about the Mortality (mouse; 125 mg/kg) of the same compound?
Answer: 6/6

Question: And the Mortality (mouse; 250 mg/kg)?
Answer: 5/6

Question: What about the Mortality (mouse; 500 mg/kg) of the same compound?
Answer: 6/6

Question: And the MIC (Candida utilis)?
Answer: ≤ 5 µg/mL

Question: And the MIC (Klebsiella pneumoniae)?
Answer: 80 µg/mL
